Assay results reported in US5053070A, “Pyrimidine derivatives, preparation processes thereof, herbicide containing the same, and herbicidal compositions containing the same along with other active ingredient” (Mitsui Toatsu Chemicals, Incorporated, priority 1988, dated 1991).
≈ marks a conversion by molar mass, not a printed value.

Key:
rice [1] = assay: Treatment of soil under submerged condition, post-emergence (Test 5), injury; type: in vivo; settings: 30 g ai/a granule, 30 days later
In short: (§1)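 Pots of submerged soil were sown with weed seeds or tubers, and 2-3-leaf rice seedling pairs were transplanted. At barnyardgrass two-leaf stage a granule formulation was applied. Weed emergence and rice injury were rated 30 days later as damage degrees.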

rice [2] = assay: Treatment of soil under submerged condition, pre-emergence (Test 4), injury; type: in vivo; settings: 30 g ai/a granule, 30 days later
In short: (§2)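 Wagner pots of soil were seeded or planted with weed seeds or tubers under flooding, then 2–3-leaf rice seedling pairs were transplanted and grown in a greenhouse. One day later, before weed emergence, pots received a granule of the test composition at a predetermined amount. Weed emergence and rice injury were scored 30 days later.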

Sagittaria pygmaea [3] = assay: Treatment of soil under submerged condition, post-emergence (Test 5); type: in vivo; settings: 30 g ai/a granule, 30 days later
In short: as §1

barnyardgrass [4] = assay: as above; type: in vivo; settings: 30 g ai/a granule, post-emergence (barnyardgrass two-leaf stage), 30 days later
In short: as §1

bulrush [5] = assay: as above; type: in vivo; settings: 30 g ai/a granule, 30 days later
In short: as §1

Sagittaria pygmaea [6] = assay: Treatment of soil under submerged condition, pre-emergence (Test 4); type: in vivo; settings: 30 g ai/a granule, 30 days later
In short: as §2

barnyardgrass [7] = assay: as above; type: in vivo; settings: 30 g ai/a granule, 30 days later
In short: as §2

bulrush [8] = assay: as above; type: in vivo; settings: 30 g ai/a granule, 30 days later
In short: as §2

peanut = assay: Upland foliar application test (Test 3), crop injury; type: in vivo; settings: 30 g ai/a, foliar spray at 2-3 leaves, 30th day
In short: (§3)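 Foliar post-emergence spray: diluted emulsifiable formulation applied at 5 l/are by pressure ULV sprayer once plants in upland-soil greenhouse pots reached 2-3 leaves. Degree of weed damage and crop injury rated on day 30 post-application.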

[9] = test system: ALS (acetolactate syntase); assay: ALS enzyme assay (Test 1); type: biochemical, barnyardgrass; settings: 1,000 ppm (0.5 mg/0.5 ml)
In short: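 Partially purified ALS from dark-grown pea and barnyardgrass seedlings incubated 1 h at 30° C with pyruvate, TPP, MgCl2 and FAD. Compounds tested at 1,000 ppm (0.5 mg/0.5 ml). Acetoin formed detected colorimetrically at 525 nm via creatine/α-naphthol, relative to blank and acid-stopped controls.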

foxtail meadow = assay: Upland foliar application test (Test 3); type: in vivo; settings: 30 g ai/a, foliar spray at 2-3 leaves, 30th day
In short: as §3

barnyardgrass [10] = assay: Upland foliar application test (Test 3); type: in vivo; settings: 30 g ai/a, foliar spray at 2-3 leaves, 30th day
In short: as §3

large crabgrass = assay: Upland foliar application test (Test 3); type: in vivo; settings: 30 g ai/a, foliar spray at 2-3 leaves, 30th day
In short: as §3

common lambsquarters = assay: Upland foliar application test (Test 3); type: in vivo; settings: 30 g ai/a, foliar spray at 2-3 leaves, 30th day
In short: as §3

redroot pigweed = assay: Upland foliar application test (Test 3); type: in vivo; settings: 30 g ai/a, foliar spray at 2-3 leaves, 30th day
In short: as §3

green foxtail = assay: Upland foliar application test (Test 3); type: in vivo; settings: 30 g ai/a, foliar spray at 2-3 leaves, 30th day
In short: as §3

johnsongrass = assay: Upland foliar application test (Test 3); type: in vivo; settings: 30 g ai/a, foliar spray at 2-3 leaves, 30th day
In short: as §3

narrowleaf waterplantain = assay: Petri dish test (Test 6); type: in vivo; settings: 336 h; seeds on filter paper, 25° C., 14 days; read-out: I80 (ppm)
In short: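 Narrowleaf waterplantain seeds placed on filter paper pre-treated with compound in acetone (solvent air-dried) in 9 cm Petri dishes with 10 ml water, grown at 25° C in light. Growth was scored after fourteen days as degree of damage against an untreated group.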

## COc1cc(OC)nc(Oc2ccccc2C=NOCc2cccc3ccccc23)n1 [compound 22]
Rice [1]
  Injury Rice: 0 (91-100 (No damages))
Rice [2]
  Injury Rice: 0 (91-100 (No damages))
Sagittaria pygmaea [3]
  Herbicidal effects Sagittaria Pygmaea: 3 (11-40 (Medium damages))
Barnyardgrass [4]
  Herbicidal effects Barnyardgrass: 5 (0-5 (Death))
Bulrush [5]
  Herbicidal effects Bulrush: 4 (6-10 (Severe damages))
Sagittaria pygmaea [6]
  Herbicidal effects Sagittaria Pygmaea: 3 (11-40 (Medium damages))
Barnyardgrass [7]
  Herbicidal effects Barnyardgrass: 3 (11-40 (Medium damages))
Bulrush [8]
  Herbicidal effects Bulrush: 3 (11-40 (Medium damages))
peanut
  Injury Peanut: 0 (91-100 (No damages))
[9]
  Inhibitory activity (%) Barnyardgrass: 35%
Foxtail meadow
  Herbicidal effects Foxtail meadow: 5 (0-5 (Death))
Barnyardgrass [10]
  Herbicidal effects Barnyardgrass: 5 (0-5 (Death))
Large crabgrass
  Herbicidal effects Large crabgrass: 5 (0-5 (Death))
Common lambsquarters
  Herbicidal effects Common lambsquarters: 4 (6-10 (Severe damages))
Redroot pigweed
  Herbicidal effects Redroot pigweed: 5 (0-5 (Death))
Green foxtail
  Herbicidal effects Green foxtail: 5 (0-5 (Death))
johnsongrass
  Herbicidal effects Johnsongrass: 5 (0-5 (Death))
Narrowleaf waterplantain
  IC80: 100 mg/L (≈ 241 µM)

## COc1cc(OC)nc(Oc2ccccc2C=NOCCc2ccccc2)n1 [compound 23]
Rice [1]
  Injury Rice: 0 (91-100 (No damages))
Rice [2]
  Injury Rice: 0 (91-100 (No damages))
Sagittaria pygmaea [3]
  Herbicidal effects Sagittaria Pygmaea: 5 (0-5 (Death))
Barnyardgrass [4]
  Herbicidal effects Barnyardgrass: 5 (0-5 (Death))
Bulrush [5]
  Herbicidal effects Bulrush: 4 (6-10 (Severe damages))
Sagittaria pygmaea [6]
  Herbicidal effects Sagittaria Pygmaea: 5 (0-5 (Death))
Barnyardgrass [7]
  Herbicidal effects Barnyardgrass: 5 (0-5 (Death))
Bulrush [8]
  Herbicidal effects Bulrush: 4 (6-10 (Severe damages))
peanut
  Injury Peanut: 0 (91-100 (No damages))
[9]
  Inhibitory activity (%) Barnyardgrass: 35%
Foxtail meadow
  Herbicidal effects Foxtail meadow: 4 (6-10 (Severe damages))
Barnyardgrass [10]
  Herbicidal effects Barnyardgrass: 3 (11-40 (Medium damages))
Large crabgrass
  Herbicidal effects Large crabgrass: 3 (11-40 (Medium damages))
Common lambsquarters
  Herbicidal effects Common lambsquarters: 3 (11-40 (Medium damages))
Redroot pigweed
  Herbicidal effects Redroot pigweed: 3 (11-40 (Medium damages))
Green foxtail
  Herbicidal effects Green foxtail: 4 (6-10 (Severe damages))
johnsongrass
  Herbicidal effects Johnsongrass: 5 (0-5 (Death))
Narrowleaf waterplantain
  IC80: 100 mg/L (≈ 264 µM)

## CCCC=CCON=Cc1ccccc1Oc1nc(OC)cc(OC)n1 [compound 25]
Rice [1]
  Injury Rice: 1 (71-90 (Slight damages))
Rice [2]
  Injury Rice: 1 (71-90 (Slight damages))
Sagittaria pygmaea [3]
  Herbicidal effects Sagittaria Pygmaea: 3 (11-40 (Medium damages))
Barnyardgrass [4]
  Herbicidal effects Barnyardgrass: 4 (6-10 (Severe damages))
Bulrush [5]
  Herbicidal effects Bulrush: 5 (0-5 (Death))
Sagittaria pygmaea [6]
  Herbicidal effects Sagittaria Pygmaea: 4 (6-10 (Severe damages))
Barnyardgrass [7]
  Herbicidal effects Barnyardgrass: 5 (0-5 (Death))
Bulrush [8]
  Herbicidal effects Bulrush: 3 (11-40 (Medium damages))
peanut
  Injury Peanut: 0 (91-100 (No damages))
[9]
  Inhibitory activity (%) Barnyardgrass: 39%
Foxtail meadow
  Herbicidal effects Foxtail meadow: 5 (0-5 (Death))
Barnyardgrass [10]
  Herbicidal effects Barnyardgrass: 4 (6-10 (Severe damages))
Large crabgrass
  Herbicidal effects Large crabgrass: 5 (0-5 (Death))
Common lambsquarters
  Herbicidal effects Common lambsquarters: 4 (6-10 (Severe damages))
Redroot pigweed
  Herbicidal effects Redroot pigweed: 4 (6-10 (Severe damages))
Green foxtail
  Herbicidal effects Green foxtail: 5 (0-5 (Death))
johnsongrass
  Herbicidal effects Johnsongrass: 5 (0-5 (Death))
Narrowleaf waterplantain
  IC80: 17 mg/L (≈ 47.6 µM)

## COc1cc(OC)nc(Oc2ccccc2C=NOCC=Cc2ccc(F)cc2)n1 [compound 29]
Rice [1]
  Injury Rice: 1 (71-90 (Slight damages))
Rice [2]
  Injury Rice: 0 (91-100 (No damages))
Sagittaria pygmaea [3]
  Herbicidal effects Sagittaria Pygmaea: 4 (6-10 (Severe damages))
Barnyardgrass [4]
  Herbicidal effects Barnyardgrass: 5 (0-5 (Death))
Bulrush [5]
  Herbicidal effects Bulrush: 4 (6-10 (Severe damages))
Sagittaria pygmaea [6]
  Herbicidal effects Sagittaria Pygmaea: 3 (11-40 (Medium damages))
Barnyardgrass [7]
  Herbicidal effects Barnyardgrass: 3 (11-40 (Medium damages))
Bulrush [8]
  Herbicidal effects Bulrush: 3 (11-40 (Medium damages))
peanut
  Injury Peanut: 0 (91-100 (No damages))
[9]
  Inhibitory activity (%) Barnyardgrass: 98%
Foxtail meadow
  Herbicidal effects Foxtail meadow: 4 (6-10 (Severe damages))
Barnyardgrass [10]
  Herbicidal effects Barnyardgrass: 5 (0-5 (Death))
Large crabgrass
  Herbicidal effects Large crabgrass: 4 (6-10 (Severe damages))
Common lambsquarters
  Herbicidal effects Common lambsquarters: 4 (6-10 (Severe damages))
Redroot pigweed
  Herbicidal effects Redroot pigweed: 5 (0-5 (Death))
Green foxtail
  Herbicidal effects Green foxtail: 4 (6-10 (Severe damages))
johnsongrass
  Herbicidal effects Johnsongrass: 5 (0-5 (Death))
Narrowleaf waterplantain
  IC80: 8 mg/L (≈ 19.5 µM)

## COc1cc(OC)nc(Oc2ccccc2C=NOCC=Cc2ccc(Cl)cc2Cl)n1 [compound 30]
Rice [1]
  Injury Rice: 0 (91-100 (No damages))
Rice [2]
  Injury Rice: 0 (91-100 (No damages))
Sagittaria pygmaea [3]
  Herbicidal effects Sagittaria Pygmaea: 4 (6-10 (Severe damages))
Barnyardgrass [4]
  Herbicidal effects Barnyardgrass: 5 (0-5 (Death))
Bulrush [5]
  Herbicidal effects Bulrush: 4 (6-10 (Severe damages))
Sagittaria pygmaea [6]
  Herbicidal effects Sagittaria Pygmaea: 5 (0-5 (Death))
Barnyardgrass [7]
  Herbicidal effects Barnyardgrass: 5 (0-5 (Death))
Bulrush [8]
  Herbicidal effects Bulrush: 4 (6-10 (Severe damages))
peanut
  Injury Peanut: 0 (91-100 (No damages))
[9]
  Inhibitory activity (%) Barnyardgrass: 97%
Foxtail meadow
  Herbicidal effects Foxtail meadow: 5 (0-5 (Death))
Barnyardgrass [10]
  Herbicidal effects Barnyardgrass: 5 (0-5 (Death))
Large crabgrass
  Herbicidal effects Large crabgrass: 5 (0-5 (Death))
Common lambsquarters
  Herbicidal effects Common lambsquarters: 4 (6-10 (Severe damages))
Redroot pigweed
  Herbicidal effects Redroot pigweed: 5 (0-5 (Death))
Green foxtail
  Herbicidal effects Green foxtail: 5 (0-5 (Death))
johnsongrass
  Herbicidal effects Johnsongrass: 5 (0-5 (Death))
Narrowleaf waterplantain
  IC80: 2 mg/L (≈ 4.34 µM)

## COc1cc(OC)nc(Oc2ccccc2C=NOCC=Cc2ccc(Cl)c(Cl)c2)n1 [compound 31]
Rice [1]
  Injury Rice: 0 (91-100 (No damages))
Rice [2]
  Injury Rice: 0 (91-100 (No damages))
Sagittaria pygmaea [3]
  Herbicidal effects Sagittaria Pygmaea: 4 (6-10 (Severe damages))
Barnyardgrass [4]
  Herbicidal effects Barnyardgrass: 5 (0-5 (Death))
Bulrush [5]
  Herbicidal effects Bulrush: 4 (6-10 (Severe damages))
Sagittaria pygmaea [6]
  Herbicidal effects Sagittaria Pygmaea: 4 (6-10 (Severe damages))
Barnyardgrass [7]
  Herbicidal effects Barnyardgrass: 3 (11-40 (Medium damages))
Bulrush [8]
  Herbicidal effects Bulrush: 3 (11-40 (Medium damages))
peanut
  Injury Peanut: 0 (91-100 (No damages))
[9]
  Inhibitory activity (%) Barnyardgrass: 90%
Foxtail meadow
  Herbicidal effects Foxtail meadow: 4 (6-10 (Severe damages))
Barnyardgrass [10]
  Herbicidal effects Barnyardgrass: 4 (6-10 (Severe damages))
Large crabgrass
  Herbicidal effects Large crabgrass: 4 (6-10 (Severe damages))
Common lambsquarters
  Herbicidal effects Common lambsquarters: 4 (6-10 (Severe damages))
Redroot pigweed
  Herbicidal effects Redroot pigweed: 3 (11-40 (Medium damages))
Green foxtail
  Herbicidal effects Green foxtail: 4 (6-10 (Severe damages))
johnsongrass
  Herbicidal effects Johnsongrass: 5 (0-5 (Death))
Narrowleaf waterplantain
  IC80: 2 mg/L (≈ 4.34 µM)
